In patent US20200331925A1, “HETEROCYCLIC COMPOUNDS FOR THE TREATMENT OF ABNORMAL CELLULAR PROLIFERATION” (G1 Therapeutics, Inc., priority 2018, published 2020) one finds IC50 data, which are given here for 7 molecules.

Common to all, as to format: biochemical
In assay [1] the target is CDK5/p35 (Homo sapiens, UniProt Q00535). The assay is described as follows: CDK5/p35 kinase assay (Nanosyn, Caliper microfluidic). Conditions: 12-point dose-response, ATP at Km (20 μM), 3 hr. As to the method:
(§1) Selected compounds disclosed herein were tested in kinase assays by Nanosyn (Santa Clara, Calif.) to determine their inhibitory effect on selected CDKs. The assays were performed using microfluidic kinase detection technology (Caliper Assay Platform). The compounds were tested in 12-point dose-response format in singlicate at Kmfor ATP. Phosphoacceptor substrate peptide concentration used was 1 μM for all assays and Staurosporine was used as the reference compound for all assays. Specifics of each assay are as described below: CDK5/p35: Enzyme concentration: 0.05 nM; ATP concentration: 20 μM; Incubation time: 3 hr.

The target of assay [2] is CDK5/p25 (Homo sapiens, UniProt Q00535). The assay can be described thus: CDK5/p25 kinase assay (Nanosyn, Caliper microfluidic). To be noted: 12-point dose-response, ATP at Km (20 μM), 3 hr. The protocol: as §1, with “CDK5/p25:” for “CDK5/p35:”, “0.1” for “0.05”
Assay [3] addresses CDK2/Cyclin E (Homo sapiens, UniProt P24941). The assay can be described thus: CDK2/Cyclin E kinase assay (Nanosyn, Caliper microfluidic). To be noted: 12-point dose-response, ATP at Km (100 μM), 3 hr. As to the method: as §1, with “CDK2/Cyclin E:” for “CDK5/p35:”, “0.15” for “0.05”, “100” for “20”
Assay [4] has as its target CDK9/Cyclin T (Homo sapiens, UniProt P50750). The assay is described as follows: CDK9/Cyclin T kinase assay (Nanosyn, Caliper microfluidic). To be noted: 12-point dose-response, ATP at Km (10 μM), 17 hr; Table 5. As to the method: as §1, with “[…]:” for “CDK5/p35:”, “5” for “0.05”, “10” for “20”, “17” for “3”
Assay [5] addresses CDK1/Cyclin B1 (Homo sapiens, UniProt P06493). The assay is described as follows: CDK1/Cyclin B1 kinase assay (Nanosyn, Caliper microfluidic). To be noted: 12-point dose-response, ATP at Km (40 μM), 3 hr. The protocol: as §1, with “CDK1/Cyclin B1:” for “CDK5/p35:”, “0.08” for “0.05”, “40” for “20”
Assay [6] deals with CDK2/Cyclin A (Homo sapiens, UniProt P24941). The assay is described as follows: CDK2/Cyclin A kinase assay (Nanosyn, Caliper microfluidic). To be noted: 12-point dose-response, ATP at Km (50 μM), 3 hr. The protocol: as §1, with “CDK2/Cyclin A:” for “CDK5/p35:”, “0.1” for “0.05”, “50” for “20”
In assay [7] the target is CDK3/Cyclin E (Homo sapiens, UniProt Q00526). The assay is described as follows: CDK3/Cyclin E kinase assay (Nanosyn, Caliper microfluidic). To be noted: 12-point dose-response, ATP at Km (400 μM), 3 hr. The protocol:
as §1, with “CDK3/Cyclin E:” for “CDK5/p35:”, “1” for “0.05”, “400” for “20”

For assay [8], the target named is CDK7/Cyclin H (Homo sapiens, UniProt P50613). The assay is described as follows: CDK7/Cyclin H kinase assay (Nanosyn, Caliper microfluidic). Conditions: 12-point dose-response, ATP at Km (50 μM), 17 hr. The protocol:
as §1, with “CDK7/Cyclin H:” for “CDK5/p35:”, “10” for “0.05”, “50” for “20”, “17” for “3”

Assay [9] concerns the target CDK6/Cyclin D3 (Homo sapiens, UniProt Q00534). The assay is described as follows: CDK6/Cyclin D3 kinase assay (Nanosyn, Caliper microfluidic). To be noted: 12-point dose-response, ATP at Km (300 μM), 3 hr. The protocol: as §1, with “CDK6/Cyclin D3:” for “CDK5/p35:”, “2” for “0.05”, “300” for “20”
The target of assay [10] is CDK4/Cyclin D1 (Homo sapiens, UniProt P11802). The assay is described as follows: CDK4/Cyclin D1 kinase assay (Nanosyn, Caliper microfluidic). Conditions: 12-point dose-response, ATP at Km (200 μM), 3 hr; Table 4. As to the method: as §1, with “CDK4/Cyclin D1:” for “CDK5/p35:”, “1” for “0.05”, “200” for “20”

Each structure is given as a SMILES string.

The IC50 is the point on the concentration scale where inhibition reaches its midpoint. Read a high IC50 as a need for much substance.

Sequence of CDK4/Cyclin D1 (P11802 whole entry): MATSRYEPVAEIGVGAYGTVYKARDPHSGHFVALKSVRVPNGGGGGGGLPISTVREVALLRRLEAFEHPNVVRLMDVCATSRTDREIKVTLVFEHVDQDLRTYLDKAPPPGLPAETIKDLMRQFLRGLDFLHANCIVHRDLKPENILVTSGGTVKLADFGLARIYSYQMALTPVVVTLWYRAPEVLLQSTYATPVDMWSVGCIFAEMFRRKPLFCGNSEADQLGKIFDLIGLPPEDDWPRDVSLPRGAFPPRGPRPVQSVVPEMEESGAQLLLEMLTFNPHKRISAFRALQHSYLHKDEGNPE
Sequence of CDK4/Cyclin D1 (P24385 whole entry partner): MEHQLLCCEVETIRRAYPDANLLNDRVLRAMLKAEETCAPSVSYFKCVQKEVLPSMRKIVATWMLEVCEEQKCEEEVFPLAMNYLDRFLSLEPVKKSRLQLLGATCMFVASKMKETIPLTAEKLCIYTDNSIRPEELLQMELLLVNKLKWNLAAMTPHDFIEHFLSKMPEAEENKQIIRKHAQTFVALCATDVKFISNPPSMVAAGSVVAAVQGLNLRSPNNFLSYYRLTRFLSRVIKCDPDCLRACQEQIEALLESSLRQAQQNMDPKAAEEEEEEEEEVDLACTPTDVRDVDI
Sequence of CDK1/Cyclin B1 (P06493 whole entry): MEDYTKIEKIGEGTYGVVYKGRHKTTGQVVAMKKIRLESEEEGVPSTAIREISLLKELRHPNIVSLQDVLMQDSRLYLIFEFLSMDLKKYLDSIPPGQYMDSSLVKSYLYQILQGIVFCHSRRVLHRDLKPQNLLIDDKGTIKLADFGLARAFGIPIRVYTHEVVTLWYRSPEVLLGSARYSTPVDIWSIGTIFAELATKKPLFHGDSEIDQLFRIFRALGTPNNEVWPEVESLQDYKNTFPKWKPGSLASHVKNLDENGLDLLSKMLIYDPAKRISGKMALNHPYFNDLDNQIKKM
Sequence of CDK1/Cyclin B1 (P14635 whole entry partner): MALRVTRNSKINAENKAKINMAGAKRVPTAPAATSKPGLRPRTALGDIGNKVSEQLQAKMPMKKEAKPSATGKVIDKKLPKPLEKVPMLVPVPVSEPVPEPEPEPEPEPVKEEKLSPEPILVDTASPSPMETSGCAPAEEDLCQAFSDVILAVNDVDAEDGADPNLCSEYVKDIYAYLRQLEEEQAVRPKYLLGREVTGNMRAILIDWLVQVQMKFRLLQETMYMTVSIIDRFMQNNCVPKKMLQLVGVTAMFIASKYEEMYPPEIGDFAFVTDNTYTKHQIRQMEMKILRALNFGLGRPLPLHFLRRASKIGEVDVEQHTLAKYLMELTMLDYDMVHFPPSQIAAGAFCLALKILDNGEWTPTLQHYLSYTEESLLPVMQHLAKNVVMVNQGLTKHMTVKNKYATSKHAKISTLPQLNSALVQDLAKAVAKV
Sequence of CDK6/Cyclin D3 (Q00534 whole entry): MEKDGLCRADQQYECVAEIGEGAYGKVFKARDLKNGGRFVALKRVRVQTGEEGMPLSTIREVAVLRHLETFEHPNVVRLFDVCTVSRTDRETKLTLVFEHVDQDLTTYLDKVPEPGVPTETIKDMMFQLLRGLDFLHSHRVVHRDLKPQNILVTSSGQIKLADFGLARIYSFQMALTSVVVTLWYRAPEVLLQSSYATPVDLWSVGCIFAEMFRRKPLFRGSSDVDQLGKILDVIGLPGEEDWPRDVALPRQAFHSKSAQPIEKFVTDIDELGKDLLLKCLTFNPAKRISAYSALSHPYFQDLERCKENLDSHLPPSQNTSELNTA
Sequence of CDK6/Cyclin D3 (P30281 whole entry partner): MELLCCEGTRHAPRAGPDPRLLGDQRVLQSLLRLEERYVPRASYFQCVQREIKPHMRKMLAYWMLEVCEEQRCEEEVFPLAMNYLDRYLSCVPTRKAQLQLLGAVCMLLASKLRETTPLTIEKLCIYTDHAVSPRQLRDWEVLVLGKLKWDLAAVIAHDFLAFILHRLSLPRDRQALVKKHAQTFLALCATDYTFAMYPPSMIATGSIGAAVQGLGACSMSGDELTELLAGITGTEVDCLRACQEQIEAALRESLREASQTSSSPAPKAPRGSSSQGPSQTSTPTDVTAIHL
Sequence of CDK7/Cyclin H (P50613 whole entry): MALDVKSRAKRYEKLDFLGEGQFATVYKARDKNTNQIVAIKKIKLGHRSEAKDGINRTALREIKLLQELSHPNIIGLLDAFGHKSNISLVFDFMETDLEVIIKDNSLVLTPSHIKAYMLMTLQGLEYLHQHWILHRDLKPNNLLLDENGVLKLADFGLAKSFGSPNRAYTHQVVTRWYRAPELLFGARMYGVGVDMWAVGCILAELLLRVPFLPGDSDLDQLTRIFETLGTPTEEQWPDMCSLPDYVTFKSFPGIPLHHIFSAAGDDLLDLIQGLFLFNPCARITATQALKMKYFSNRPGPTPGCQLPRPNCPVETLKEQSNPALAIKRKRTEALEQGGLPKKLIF
Sequence of CDK7/Cyclin H (P51946 whole entry partner): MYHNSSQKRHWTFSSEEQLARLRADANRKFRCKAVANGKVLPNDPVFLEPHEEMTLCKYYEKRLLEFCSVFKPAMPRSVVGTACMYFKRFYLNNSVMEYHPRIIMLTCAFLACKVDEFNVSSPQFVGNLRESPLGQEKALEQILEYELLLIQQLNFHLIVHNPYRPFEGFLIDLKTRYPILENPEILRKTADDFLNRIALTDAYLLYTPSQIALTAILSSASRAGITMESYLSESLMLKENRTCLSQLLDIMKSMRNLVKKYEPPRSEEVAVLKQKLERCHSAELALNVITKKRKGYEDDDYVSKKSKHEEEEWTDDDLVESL
Sequence of CDK7/Cyclin H (P51948 whole entry partner): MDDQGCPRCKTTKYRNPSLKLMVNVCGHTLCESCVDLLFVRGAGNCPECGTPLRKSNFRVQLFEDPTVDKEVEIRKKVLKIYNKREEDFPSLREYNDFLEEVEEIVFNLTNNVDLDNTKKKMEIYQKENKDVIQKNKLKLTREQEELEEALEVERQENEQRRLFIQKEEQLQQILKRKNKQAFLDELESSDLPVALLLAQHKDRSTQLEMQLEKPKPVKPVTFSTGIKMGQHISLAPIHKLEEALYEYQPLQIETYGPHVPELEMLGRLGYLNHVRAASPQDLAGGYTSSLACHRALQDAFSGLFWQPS
Sequence of CDK9/Cyclin T (P50750 whole entry): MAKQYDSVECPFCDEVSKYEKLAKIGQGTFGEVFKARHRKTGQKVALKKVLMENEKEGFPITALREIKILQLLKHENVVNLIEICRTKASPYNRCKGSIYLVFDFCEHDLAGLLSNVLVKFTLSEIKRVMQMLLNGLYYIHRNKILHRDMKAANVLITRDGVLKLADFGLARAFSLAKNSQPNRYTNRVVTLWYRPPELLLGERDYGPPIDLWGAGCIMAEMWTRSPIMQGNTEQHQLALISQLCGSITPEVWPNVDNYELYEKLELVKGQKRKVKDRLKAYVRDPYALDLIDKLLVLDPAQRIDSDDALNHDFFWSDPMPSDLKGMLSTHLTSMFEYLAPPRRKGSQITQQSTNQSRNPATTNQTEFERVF
Sequence of CDK9/Cyclin T (O60563 whole entry partner): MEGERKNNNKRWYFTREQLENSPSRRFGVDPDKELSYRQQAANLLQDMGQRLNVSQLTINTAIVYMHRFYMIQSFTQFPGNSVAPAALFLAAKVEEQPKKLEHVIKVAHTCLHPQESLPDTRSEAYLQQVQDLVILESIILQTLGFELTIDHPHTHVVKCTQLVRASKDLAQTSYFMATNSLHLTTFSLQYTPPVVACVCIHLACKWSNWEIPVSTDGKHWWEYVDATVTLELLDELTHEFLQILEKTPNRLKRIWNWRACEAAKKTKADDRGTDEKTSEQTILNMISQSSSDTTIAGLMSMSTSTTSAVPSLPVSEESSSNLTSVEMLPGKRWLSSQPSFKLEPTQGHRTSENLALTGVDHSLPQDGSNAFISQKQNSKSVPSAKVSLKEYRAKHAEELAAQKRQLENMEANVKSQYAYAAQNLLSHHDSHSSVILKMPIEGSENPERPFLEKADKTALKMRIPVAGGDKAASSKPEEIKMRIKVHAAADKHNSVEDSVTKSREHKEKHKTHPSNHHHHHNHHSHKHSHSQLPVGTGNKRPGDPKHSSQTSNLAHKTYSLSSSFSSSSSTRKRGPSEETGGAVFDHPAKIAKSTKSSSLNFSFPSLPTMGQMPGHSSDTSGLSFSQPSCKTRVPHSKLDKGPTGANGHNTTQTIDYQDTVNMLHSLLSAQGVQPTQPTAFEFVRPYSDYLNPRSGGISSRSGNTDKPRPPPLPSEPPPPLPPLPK
Sequence of CDK5/p25 (Q00535 whole entry): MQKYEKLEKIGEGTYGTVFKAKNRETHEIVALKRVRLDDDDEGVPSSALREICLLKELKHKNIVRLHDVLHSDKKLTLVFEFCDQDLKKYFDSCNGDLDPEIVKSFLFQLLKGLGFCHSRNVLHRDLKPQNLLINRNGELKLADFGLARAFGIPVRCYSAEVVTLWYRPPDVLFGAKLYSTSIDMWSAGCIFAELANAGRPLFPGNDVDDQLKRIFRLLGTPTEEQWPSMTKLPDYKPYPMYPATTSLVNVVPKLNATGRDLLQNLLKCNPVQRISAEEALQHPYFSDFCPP
Sequence of CDK5/p25 (Q15078 99-307 partner limits assumed): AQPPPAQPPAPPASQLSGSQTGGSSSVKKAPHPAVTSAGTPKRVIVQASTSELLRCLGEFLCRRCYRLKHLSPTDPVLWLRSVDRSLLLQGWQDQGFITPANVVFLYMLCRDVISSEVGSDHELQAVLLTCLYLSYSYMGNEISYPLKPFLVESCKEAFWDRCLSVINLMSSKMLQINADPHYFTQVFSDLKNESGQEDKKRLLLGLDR

Consider `O=C1NCC2(CCCCC2)n2c1cc1cnc(N[C@H]3CC[C@H](NCc4cccnc4)CC3)nc12` [Compound 21, 2′-(((1,4-trans)-4-((pyridin-3-ylmethyl)amino)cyclohexyl)amino)-7′,8′-dihydro-6′H-spiro[cyclohexane-1,9′-pyrazino[1′,2′:1,5]pyrrolo[2,3-d]pyrimidin]-6′-one], for which the IC50 worked out at 350 nM in assay [1]; 320 nM in [2]; 220 nM in [3]; 2.1 nM in [4]; 310 nM in assay [5]; 140 nM in assay [6]. In addition, the IC50 in assay [7] came out at 290 nM; in [8], 110 nM; in assay [9], 71 nM; in assay [10], 14 nM.
For the molecule `CS(=O)(=O)N[C@H]1CC[C@H](Nc2ncc3cc4n(c3n2)C2(CCCCC2)CNC4=O)CC1` [Compound 22, N-((1,4-trans)-4-((6′-oxo-7′,8′-dihydro-6′H-spiro[cyclohexane-1,9′-pyrazino[1′,2′:1,5]pyrrolo[2,3-d]pyrimidin]-2′-yl)amino)cyclohexyl)methanesulfonamide], the IC50 came out at 170 nM in assay [1]; 230 nM in assay [2]; 190 nM in [3]; 56 nM in [4]; 410 nM in [5]; 78 nM in assay [6]. For the same molecule, the IC50 was 510 nM in assay [7], 3400 nM in assay [8], 350 nM in assay [9] and 69 nM in assay [10].
As to `O=C1NCC2(CCCCC2)n2c1cc1cnc(N[C@H]3CCCNC3=O)nc12` [Compound 23, (S)-2′-((2-oxopiperidin-3-yl)amino)-7′,8′-dihydro-6′H-spiro[cyclohexane-1,9′-pyrazino[1′,2′:1,5]pyrrolo[2,3-d]pyrimidin]-6′-one], the IC50 in assay [1] worked out at 47000 nM; in [2], 55000 nM; in [3], 35000 nM; in [4], 690 nM; in assay [5], 39000 nM; in [6], 28000 nM. Moreover, the IC50 was determined as 56000 nM in [7], 61000 nM in [8], 940 nM in assay [9] and 170 nM in [10].
As for `O=C1CC[C@H](Nc2ncc3cc4n(c3n2)C2(CCCCC2)CNC4=O)CN1` [Compound 24, (S)-2′-((6-oxopiperidin-3-yl)amino)-7′,8′-dihydro-6′H-spiro[cyclohexane-1,9′-pyrazino[1′,2′:1,5]pyrrolo[2,3-d]pyrimidin]-6′-one], the IC50 stood at 330 nM in assay [1]; 260 nM in [2]; 240 nM in assay [3]; 25 nM in [4]; 560 nM in assay [5]; 220 nM in assay [6]. In addition, the concentration for half-maximal inhibition (IC50) is 290 nM in [7], 470 nM in [8], 1000 nM in [9] and 250 nM in assay [10].
Turning to `O=C1NCC2(CCCCC2)n2c1cc1cnc(N[C@H]3Cc4ccccc4NC3=O)nc12` [Compound 27, (S)-2′-((2-oxo-1,2,3,4-tetrahydroquinolin-3-yl)amino)-7′,8′-dihydro-6′H-spiro[cyclohexane-1,9′-pyrazino[1′,2′:1,5]pyrrolo[2,3-d]pyrimidin]-6′-one], the IC50 came out at 10000 nM in [1]; 9600 nM in assay [2]; 11000 nM in assay [3]; 560 nM in assay [4]; 8900 nM in assay [5]; 8000 nM in [6]. In addition, the concentration for half-maximal inhibition (IC50) in assay [7] is 26000 nM; in [8] it was 14000 nM; in assay [9] it was 970 nM; in assay [10], 270 nM.
In the case of `O=C1NCC2(CCCCC2)n2c1cc1cnc(NC(=O)[C@H]3CNCC[C@H]3c3ccccc3)nc12` [Compound 28, (3R,4R)-N-(6′-oxo-7′,8′-dihydro-6′H-spiro[cyclohexane-1,9′-pyrazino[1′,2′:1,5]pyrrolo[2,3-d]pyrimidin]-2′-yl)-4-phenylpiperidine-3-carboxamide], the 50% inhibitory concentration (IC50) in [1] is more than 100000 nM; in assay [2], more than 100000 nM; in [3] it was more than 100000 nM; in assay [4], 240 nM; in assay [5] it was 93000 nM; in assay [6] it was 67000 nM. The IC50 in [7] is more than 100000 nM; in assay [8], more than 100000 nM; in assay [9], more than 100000 nM; in assay [10] it was 9000 nM.
With `C[C@H]1NCCC[C@H]1C(=O)Nc1ncc2cc3n(c2n1)C1(CCCCC1)CNC3=O` [Compound 30, (2R,3R)-2-methyl-N-(6′-oxo-7′,8′-dihydro-6′H-spiro[cyclohexane-1,9′-pyrazino[1′,2′:1,5]pyrrolo[2,3-d]pyrimidin]-2′-yl)piperidine-3-carboxamide], the IC50 in assay [1] was found to be 8000 nM; in assay [2], 8400 nM; in [3], 5400 nM; in [4] it was 45 nM; in assay [5], 3800 nM; in [6], 1900 nM. Also, the 50% inhibitory concentration (IC50) came out at 6900 nM in assay [7], 4500 nM in [8], 15000 nM in [9] and 1500 nM in assay [10].
